Measurements taken from patent US20260286396A1, “AXL KNOCK OUT CAR T CELLS AND METHODS FOR USE THEREOF” (priority 2023, published 2026).

System: CART19 cells
Test: RNA sequencing of CART19 cells with Ingenuity pathway analysis (pathways, upstream regulators)
Format: cell-based, human
Conditions: for Expr Log Ratio / Activation Z-Score / Predicted Activation State: 30 nM, 24 hours vs vehicle
Procedure: CART19 cells were isolated using CD4 and CD8 microbeads to […] the JeKo-1 target cells; this isolation step was performed twice to eliminate the possible contamination of JeKo-1 cells. RNA was isolated from the CART19 cells using QIAGEN RNEASY® Plus Mini Kit. RNA was further treated with DNase I (QIAGEN) and purified using RNA Clean & Concentrator (Zymo Research). […] The fastq files were viewed in FastQC to check for quality (Cox et al., Mol Ther., 29 (4): 1529-1540, 2020). After verifying the lack of adapter sequences with FastQC, Cutadapt (Martin, EMBnet, 17:10-12, 2011) was used to filter for reads greater than 32 base pairs. Output files were re-checked for quality using FastQC. The latest human reference genome (GRCh38.p13) was downloaded from NCBI. Genome index files were generated using STAR (Cox et al. 2020, supra, and Dobin et al., Bioinformatics, 29:15-21, 2012). Paired end reads from fastq files were mapped to the genome for each condition. HTSeq was used to generate expression counts for each gene (Cox et al. 2020, supra; and Putri et al., Bioinformatics, 38:2943-2945, 2022). […] The disruption efficiency of the CRISPR/Cas9 GM-CSF knockout was determined using targeted sequencing through PCR and TIDE analysis (software available at tide.nki.nl) as described elsewhere (Sakemura et al. 2021, supra).
RNA sequencing of CART19 cells was then performed. […] Data were analyzed with the use of QIAGEN Ingenuity Pathway Analysis (IPA) (digitalinsights.qiagen.com/IPA; Krämer et al., Bioinformatics 30 (4): 523-530, 2014).

[1] = CART19+JeKo-1, 30 nM TP-0903 vs vehicle, 24 h
[2] = CART19+JeKo-1, 30 nM TP-0903 vs vehicle, 24 h, flag bias
[3] = Upstream Regulator BRD4 (second entry, r376)

`CN1CCN(Cc2ccc(Nc3ncc(Cl)c(Nc4ccccc4S(=O)(=O)N(C)C)n3)cc2)CC1` [TP-0903, Dubermatinib] was tested, and the “upstream regulator SREBF1 Predicted Activation State” value [1] was “inhibited”, the “upstream regulator SREBF2 Activation Z-Score” value [1] was −1.433 and the “upstream regulator SUCNR1 Activation Z-Score” value [1] was 0. The “upstream regulator TEAD3 Activation Z-Score” value [1] was −1.633, the “upstream regulator TERT Activation Z-Score” value [1] was −1.412 and the “upstream regulator TGFB1 Activation Z-Score” value [1] was −1.429. The “upstream regulator TGFB3 Activation Z-Score” value [1] was −0.894, the “upstream regulator TGFBR2 Activation Z-Score” value [1] was 0.658 and the “upstream regulator TLR2 Activation Z-Score” value [1] was −1.417. The “upstream regulator TLR7 Predicted Activation State” value [1] was “inhibited”, the “upstream regulator TNFRSF4 Activation Z-Score” value [1] was −1.098 and the “upstream regulator TNFSF15 Activation Z-Score” value [1] was −0.425. The “upstream regulator TRAF3 Activation Z-Score” value [1] was −0.656, the “upstream regulator TREM1 Activation Z-Score” value [1] was −0.093 and the “upstream regulator VEGF Activation Z-Score” value [1] was −0.81. The “upstream regulator WNT1 Activation Z-Score” value [1] was −1.387, the “upstream regulator YAP1 Activation Z-Score” value [1] was 0.591 and the “upstream regulator COMMD1 Activation Z-Score” value [2] was 2. For the same compound, the “upstream regulator CSF Activation Z-Score” value [2] was −0.816, the “upstream regulator EGLN Activation Z-Score” value [2] was 1.793 and the “upstream regulator IKZF2 Activation Z-Score” value [2] was 0.447. For the same compound, the “upstream regulator MIR-17-5P (AND OTHER MIRNAS W/SEED AAAGUGC) Activation Z-Score” value [2] was 1.449, the “upstream regulator MIR-450A-5P (AND OTHER MIRNAS W/SEED UUUGCGA) Activation Z-Score” value [2] was 2.236 and the “upstream regulator MLXIPL Activation Z-Score” value [2] was −3.101. The “upstream regulator PAF1 Activation Z-Score” value [2] was 0.762, the “upstream regulator TLR7 Activation Z-Score” value [2] was −2 and the “upstream regulator TPH1 Activation Z-Score” value [2] was −1.89. The “Expr Log Ratio” value (Upstream Regulator ADAM8) was −0.008, the “Activation Z-Score” value (Upstream Regulator ADRB) was 1.616 and the “Activation Z-Score” value (Upstream Regulator AHR) was −0.104. For the same compound, the “Expr Log Ratio” value (Upstream Regulator AHR) was −0.083, the “Activation Z-Score” value (Upstream Regulator AKT) was −2.79 and the “Predicted Activation State” value (Upstream Regulator AKT) was “inhibited”. The “Activation Z-Score” value (Upstream Regulator AREG) was −2.287, the “Expr Log Ratio” value (Upstream Regulator AREG) was 1.429 and the “Predicted Activation State” value (Upstream Regulator AREG) was “inhibited”. The “Activation Z-Score” value (Upstream Regulator BHLHE40) was −0.158, the “Expr Log Ratio” value (Upstream Regulator BHLHE40) was 0.043 and the “Expr Log Ratio” value (Upstream Regulator BIRC5) was −0.028. For the same compound, the “Activation Z-Score” value (Upstream Regulator BNIP3L) was −1.463, the “Expr Log Ratio” value (Upstream Regulator BNIP3L) was −0.47 and the “Activation Z-Score” value (Upstream Regulator BRD4 (first entry, r300, no Expr Log Ratio)) was −0.213. For the same compound, the “Activation Z-Score” value [3] was −2.16, the “Expr Log Ratio” value [3] was −0.067 and the “Predicted Activation State” value [3] was “inhibited”. The “Activation Z-Score” value (Upstream Regulator CASP8) was 1.72, the “Expr Log Ratio” value (Upstream Regulator CASP8) was 0.141 and the “Activation Z-Score” value (Upstream Regulator CD3) was −1.272. The “Activation Z-Score” value (Upstream Regulator CD40) was −0.284, the “Expr Log Ratio” value (Upstream Regulator CD40) was −0.283 and the “Activation Z-Score” value (Upstream Regulator CDKN2A) was 0.421. For the same compound, the “Expr Log Ratio” value (Upstream Regulator CDKN2A) was −0.27, the “Activation Z-Score” value (Upstream Regulator CREB1) was −0.611 and the “Expr Log Ratio” value (Upstream Regulator CREB1) was −0.112. For the same compound, the “Activation Z-Score” value (Upstream Regulator CREM) was 0.286, the “Expr Log Ratio” value (Upstream Regulator CREM) was 0.351 and the “Activation Z-Score” value (Upstream Regulator CSF1) was −1.71. The “Expr Log Ratio” value (Upstream Regulator CSF1) was −0.377, the “Activation Z-Score” value (Upstream Regulator CSF2) was −2.255 and the “Expr Log Ratio” value (Upstream Regulator CSF2) was −0.066. The “Predicted Activation State” value (Upstream Regulator CSF2) was “inhibited”, the “Activation Z-Score” value (Upstream Regulator CTNNB1) was −2.082 and the “Expr Log Ratio” value (Upstream Regulator CTNNB1) was −0.154. The “Predicted Activation State” value (Upstream Regulator CTNNB1) was “inhibited”, the “Activation Z-Score” value (Upstream Regulator DDIT4) was −0.816 and the “Expr Log Ratio” value (Upstream Regulator DDIT4) was −0.248. For the same compound, the “Activation Z-Score” value (Upstream Regulator EGF) was −1.744, the “Expr Log Ratio” value (Upstream Regulator EIF2S1) was 0.079 and the “Activation Z-Score” value (Upstream Regulator ELAVL1) was −1.431. The “Expr Log Ratio” value (Upstream Regulator ELAVL1) was 0.045, the “Activation Z-Score” value (Upstream Regulator EPAS1) was −0.365 and the “Expr Log Ratio” value (Upstream Regulator EPAS1) was −0.784. The “Activation Z-Score” value (Upstream Regulator ETS1) was −1.485, the “Expr Log Ratio” value (Upstream Regulator ETS1) was 0.129 and the “Activation Z-Score” value (Upstream Regulator FOXP3) was 1.094. The “Expr Log Ratio” value (Upstream Regulator FOXP3) was −0.21, the “Expr Log Ratio” value (Upstream Regulator GNAQ) was −0.381 and the “Activation Z-Score” value (Upstream Regulator GNAS) was 0.898. The “Expr Log Ratio” value (Upstream Regulator GNAS) was 0.075, the “Activation Z-Score” value (Upstream Regulator HDL-CHOLESTEROL) was 1.89 and the “Activation Z-Score” value (Upstream Regulator HIF1A) was −1.763. For the same compound, the “Expr Log Ratio” value (Upstream Regulator HIF1A) was 0.181, the “Activation Z-Score” value (Upstream Regulator HRAS) was −1.187 and the “Activation Z-Score” value (Upstream Regulator ID2) was 1.609. The “Expr Log Ratio” value (Upstream Regulator ID2) was 0.114, the “Activation Z-Score” value (Upstream Regulator IFN BETA) was −0.892 and the “Activation Z-Score” value (Upstream Regulator IFNG) was −2.044. For the same compound, the “Expr Log Ratio” value (Upstream Regulator IFNG) was −0.559, the “Predicted Activation State” value (Upstream Regulator IFNG) was “inhibited” and the “Activation Z-Score” value (Upstream Regulator IGG) was 1.765. For the same compound, the “Activation Z-Score” value (Upstream Regulator IL1B) was −1.164, the “Expr Log Ratio” value (Upstream Regulator IL1B) was 0.19 and the “Activation Z-Score” value (Upstream Regulator IL2) was −1.669. For the same compound, the “Expr Log Ratio” value (Upstream Regulator IL2) was −0.397, the “Activation Z-Score” value (Upstream Regulator IL3) was −1.125 and the “Expr Log Ratio” value (Upstream Regulator IL3) was −0.843. For the same compound, the “Activation Z-Score” value (Upstream Regulator IL4) was −3.271, the “Expr Log Ratio” value (Upstream Regulator IL4) was −1.068 and the “Predicted Activation State” value (Upstream Regulator IL4) was “inhibited”. For the same compound, the “Activation Z-Score” value (Upstream Regulator IL5) was −1.165, the “Expr Log Ratio” value (Upstream Regulator IL5) was −1.157 and the “Activation Z-Score” value (Upstream Regulator IL6) was −2.441. The “Expr Log Ratio” value (Upstream Regulator IL6) was −1.319, the “Predicted Activation State” value (Upstream Regulator IL6) was “inhibited” and the “Activation Z-Score” value (Upstream Regulator IL13) was −1.489. For the same compound, the “Expr Log Ratio” value (Upstream Regulator IL13) was 0, the “Activation Z-Score” value (Upstream Regulator IL17A) was 0.354 and the “Expr Log Ratio” value (Upstream Regulator IL17A) was −0.356. The “Activation Z-Score” value (Upstream Regulator IL33) was −1.508, the “Activation Z-Score” value (Upstream Regulator IMMUNOGLOBULIN) was 0.465 and the “Expr Log Ratio” value (Upstream Regulator ITGA11) was −0.167. The “Activation Z-Score” value (Upstream Regulator ITGA11, flag bias) was −1 and the “Activation Z-Score” value (Upstream Regulator KLF11) was −2.333.
